Columns and labels:
[1] = test system: liver gene expression (ACACA, ACLY, FASN, LSS, PNPLA3); experiment: Liver gene expression in mice after oral administration; format: in vivo; conditions: vs vehicle
Procedure: (§1) The pharmacodynamic properties of selected compounds were evaluated in mice. The animals were housed in cages with clean bedding, and maintained and monitored for good health in accordance with Test Facility SOPs and at the discretion of the laboratory animal veterinarian. Certified rodent diet was provided. Food and water was available ad libitum. Environmental controls for the animal room were set to maintain a temperature of 22° C. to 25° C., humidity of 40-70% RH, and a 12-hour light/[…]. Normal healthy animals certified by the attending veterinarian were selected and acclimatized for minimum three days prior to initiation of study. Animals were identified with body markings.
(§2) Aliquots of the compounds being evaluated were weighed and triturated with 0.5% methylcellulose (with the addition of 5% N-methyl pyrrolidone when required to remove clumping, as for Z-806) to an appropriate dose concentration. Vials were labeled with the information about study number, test item, concentration and date of preparation. A description of appearance of formulation was recorded (e.g., color, turbidity, etc.). The composition of formulation vehicle was recorded. An aliquot of each dose solution was taken before the dosing began and after dosing was finished, and stored at approximately −20° C. or below for subsequent analysis. The animals were dosed orally through oral gavage needle, and time of dosing was recorded.
(§3) Liver Collection at 6 h or 24 h: Immediately after blood withdrawal for pharmacokinetic evaluation (at 6 or at 24 h), liver tissue was collected without perfusion. Animals were euthanized using carbon dioxide gas in a CO2 chamber. The whole blood was drained by cutting the both side jugular vein and abdominal aorta. The liver was separated out. All the liver samples were divided in two parts. The first part (200 mg approx.) was snap frozen using liquid nitrogen as soon as possible. These samples were immediately transferred to −80° C. for storage. The remaining part was weighed and used for bioanalysis.
RNA Processing and Gene Expression Analysis: Liver Tissue RNA was harvested with the RNEasy kit and 20-100 ng used to synthesize cDNA with random primers following the manufacturer's protocol. Quantitative PCR was performed on 1 pg to 100 ng cDNA for the following genes: ACACA, ACLY, FASN, LSS, PNPLA3. Gene expression levels were determined using ΔΔCT method comparing treated to vehicle treated samples as a baseline, and fold change calculated. The average value for all 5 genes above was averaged and termed to Total Fold Change The results from this evaluation are presented in Table 8.

[2] = Plasma and liver compound levels in mice after oral administration; format: in vivo
Procedure: as §1, §2
After dosing, the mice were anesthetized using gaseous anesthesia. Blood samples were collected through a capillary, guided in retro-orbital plexus, at 6 h or at 24 h. Approximately 100 uL of blood was collected from each mouse, in pre-labeled tubes. The collected blood was stored on ice prior to centrifugation. Blood samples were then centrifuged within 1 hour of collection to separate plasma. Centrifugation was conducted at 2500×g for 15 minutes at 4° C. The plasma was separated and transferred to pre-labeled micro-centrifuge tubes and promptly frozen at −80±10° C. until bioanalysis.
as §3

[3] = In vivo pharmacokinetic properties in mice (IV and PO); set-up: species or system C57BL/6J mice; conditions: mouse, in vivo
How it was run: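 Male C57BL/6J mice received 10 mg/kg orally; plasma sampled by retro-orbital capillary at 0.25–24 h. IV dosing described at 2.00 mg/kg via tail vein, plasma sampled 0.083–24 h.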

With `CC(C)(C)c1cc(-c2cncc(-c3ccc(C(=O)N4CCC(O)CC4)cc3Cl)c2)ccn1` [Compound Z-725] the “Total Gene FC Time (6 h)” value ([1]; 10 mpk) was “+++ (0-0.509 = +++)”, the “Total Gene FC Time (24 h)” value ([1]; 10 mpk) was “+ (>0.751 = +)” and the “Total Gene FC Time (6 h)” value ([1]; 30 mpk) was “+++ (0-0.509 = +++)”. For the same compound, the “Total Gene FC Time (24 h)” value ([1]; 30 mpk) was “+ (>0.751 = +)”, the “Liver ng/mg (6 h)” value ([2]; 10 mpk) was 100 to 1000 ng/mg and the “Plasma ng/mL (6 h)” value ([2]; 10 mpk) was under 100 ng/mL. The “Liver ng/mg 24 h” value ([2]; 10 mpk) was 100 to 1000 ng/mg, the “Plasma ng/mL (24 h)” value ([2]; 10 mpk) was under 100 ng/mL and the “Liver ng/mg (6 h)” value ([2]; 30 mpk) was 100 to 1000 ng/mg. The “Plasma ng/mL (6 h)” value ([2]; 30 mpk) was 100 to 1000 ng/mL, the “Liver ng/mg 24 h” value ([2]; 30 mpk) was under 100 ng/mg and the “Plasma ng/mL (24 h)” value ([2]; 30 mpk) was under 100 ng/mL. For the same compound, the “% F (Bioavailability of oral delivery)” value [3] was 58%, the Intravenous Delivery (IV) AUC0-last ([3]; iv, 2 mg/kg) was 1900 ng·h/mL and the “Intravenous Delivery (IV) CL” value ([3]; iv, 2 mg/kg) was 17.5 mL/min/kg. The “Intravenous Delivery (IV) T1/2” value ([3]; iv, 2 mg/kg) was 3.39 h, the “Intravenous Delivery (IV) Vd” value ([3]; iv, 2 mg/kg) was 5.13 L/kg and the Oral Administration (PO) AUC0-last ([3]; po, 10 mg/kg) was 5400 ng·h/mL. For the same compound, the “Oral Administration (PO) T1/2” value ([3]; po, 10 mg/kg) was 4.72 h and the “Oral Administration (PO) Tmax” value ([3]; po, 10 mg/kg) was 1 h.

Source: patent US11718628B2, “SREBP inhibitors comprising a 6-membered central ring” (Capulus Therapeutics, LLC, priority 2018, dated 2023)
